Assay in all cases: ≥ marks a high value that may be exact or a test limit, other limits are often not marked, values filed in µg/mL are converted to µM
Test [1] concerns Staphylococcus aureus ATCC 29213.
Test [2] deals with Pseudomonas aeruginosa ATCC 27853.
Test [3] relates to Lacticaseibacillus rhamnosus 1.0936.
In test [4] the test system is Salmonella enterica subsp. enterica serovar Choleraesuis CVCC 503.
In test [5] the test system is Salmonella enterica subsp. enterica serovar Pullorum C79-13.
The test system of test [6] is Staphylococcus aureus ATCC 43300.
The test system of test [7] is Staphylococcus epidermidis ATCC 12228.
The subject of the next test is Escherichia coli K88.
In test [8] the test system is Lacticaseibacillus rhamnosus 8014.
In test [9] the test system is Streptococcus agalactiae BNCC 185941.
Test [10] relates to Lacticaseibacillus rhamnosus 1.0911.
The test system of test [11] is Pseudomonas aeruginosa PAO1.
For test [12], the system named is Salmonella enterica subsp. enterica serovar Typhimurium ATCC 14028.
In test [13] the test system is Escherichia coli O157:H7 CICC 21530.
Test [14] concerns Escherichia coli ATCC 25922.
Test [15] has as its system Lacticaseibacillus rhamnosus 1.9021.
For test [16], the system named is Legionella pneumophila Lens.
For the next test, the system named is Micrococcus luteus A270.
The test system of test [17] is Pseudomonas aeruginosa PA14.
In test [18] the test system is Escherichia coli DH5alpha.
Test [19] concerns Escherichia coli K12 MG1655.

Converted amounts (≈) assume the structure as drawn. “And” between values parts separate entries of the source, which are not always exact repeats. Equal values may be shown once. A value given as a limit tells only on which side of the number the result lay.

As usually defined, the MIC is the smallest concentration in the dilution series that meets the test's criterion for growth inhibition. `CC(C)C[C@H](NC(=O)CNC(=O)[C@H](CC(C)C)NC(=O)[C@H](CS)NC(=O)[C@H](CC(C)C)NC(=O)CNC(=O)[C@H](CC(C)C)NC(=O)[C@H](CCCCN)NC(=O)[C@@H](N)CCCCN)C(=O)N[C@@H](CCCCN)C(=O)N[C@@H](CCCCN)C(N)=O` [KKLGLCLGLKK]: the minimum inhibitory concentration (MIC) in test [1] is 128 µM (≈ 154 µg/mL); in test [2] it was 64 µM (≈ 76.8 µg/mL); in [3], no less than 128 µM; in test [4], no less than 64 µM; in test [5], 8 µM (≈ 9.6 µg/mL); in [6], 64 µM (≈ 76.8 µg/mL). The minimum inhibitory concentration (MIC) in test [7] was 128 µM (≈ 154 µg/mL); with Escherichia coli K88, 16 µM (≈ 19.2 µg/mL); in test [8], no less than 64 µM; in test [9], no less than 128 µM; in test [10], 16 µM (≈ 19.2 µg/mL); in [11], 32 µM (≈ 38.4 µg/mL). Besides, the MIC in test [12] is 64 µM (≈ 76.8 µg/mL); in test [13] it was 16 µM (≈ 19.2 µg/mL); in test [14] it was 32 µM and 64 µM; in test [15], no less than 32 µM.
Regarding `CC[C@H](C)[C@H](NC(=O)[C@H](CC(C)C)NC(=O)CNC(=O)[C@H](CCCCN)NC(=O)[C@@H](NC(=O)[C@@H](NC(=O)[C@H](CCC(=O)O)NC(=O)[C@H](Cc1ccccc1)NC(=O)[C@H](Cc1ccccc1)NC(=O)[C@H](CCCCN)NC(=O)[C@H](C)NC(=O)[C@@H](NC(=O)[C@@H](NC(=O)[C@H](CC(=O)O)NC(=O)[C@H](C)NC(=O)[C@@H](N)CCSC)C(C)C)[C@@H](C)CC)[C@@H](C)CC)C(C)C)C(=O)N[C@@H](CC(=O)O)C(=O)N[C@@H](CCC(N)=O)C(=O)N[C@@H](Cc1ccccc1)C(=O)N[C@H](C(=O)N[C@@H](CCC(N)=O)C(=O)N[C@@H](CCCCN)C(=O)O)[C@@H](C)O` [MADVIAKFFEIVKGLIDQFTQK], the minimal inhibitory concentration (MIC) in test [16] was found to be 2.44 µM (≈ 6.2 µg/mL).
`CC(C)C[C@H](NC(=O)CNC(=O)[C@@H](NC(=O)[C@H](CC(C)C)NC(=O)[C@H](C)NC(=O)[C@@H](N)C(C)C)[C@@H](C)O)C(=O)N[C@H](C(=O)N[C@H](C(=O)N[C@@H](C)C(=O)N[C@@H](CCC(=O)O)C(=O)N[C@@H](Cc1ccc(O)cc1)C(=O)N[C@@H](Cc1ccccc1)C(=O)N[C@@H](CCCN=C(N)N)C(=O)O)C(C)C)[C@@H](C)O` [VALTGLTVAEYFR]: the MIC turned out to be 1.9 µM (≈ 2.74 µg/mL) in the test with Micrococcus luteus A270; 3.9 µM (≈ 5.61 µg/mL) in [1]; 7.8 µM (≈ 11.2 µg/mL) in test [2]; 15.6 µM (≈ 22.5 µg/mL) in test [17]; 3.9 µM (≈ 5.61 µg/mL) in [18]; 7.8 µM (≈ 11.2 µg/mL) in test [19].
